Measured values from patent EP0726263A2, “Herbicidal (1,3,4)oxadiazoles and thiadiazoles” (American Cyanamid Company, priority 1995, dated 1996).

Experiments:
Format in all cases: in vivo
Glycine max [1] = assay: Herbicidal activity, preemergence test; conditions: pre; sprayed onto soil, 800 g of active material per hectare; evaluated 3 weeks after treatment
Outline: (§1)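 Scored visually on a 0-9 scale against untreated sown soil 3 weeks after application. Seeds freshly sown in prepared loam received a soil spray of 800 g/ha active material, applied as a water-diluted acetone solution with 0.4% TRITON X-155 at 900 L/ha.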

Viola arvensis [2] = assay: Herbicidal activity, preemergence test; conditions: pre; sprayed onto soil, 800 g of active material per hectare; evaluated 3 weeks after treatment
Outline: as §1

Gossypium hirsutum [3] = assay: Herbicidal activity, preemergence test; conditions: pre; sprayed onto soil, 800 g of active material per hectare; evaluated 3 weeks after treatment
Outline: as §1

Papaver rhoeas [4] = assay: Herbicidal activity, preemergence test; conditions: pre; sprayed onto soil, 800 g of active material per hectare; evaluated 3 weeks after treatment
Outline: as §1

Alopecurus myosuroides [5] = assay: Herbicidal activity, preemergence test; conditions: pre; sprayed onto soil, 800 g of active material per hectare; evaluated 3 weeks after treatment
Outline: as §1

Triticum aestivum [6] = assay: Herbicidal activity, preemergence test; conditions: pre; sprayed onto soil, 800 g of active material per hectare; evaluated 3 weeks after treatment
Outline: as §1

Abutilon theophrasti [7] = assay: Herbicidal activity, preemergence test; conditions: pre; sprayed onto soil, 800 g of active material per hectare; evaluated 3 weeks after treatment
Outline: as §1

Zea mays [8] = assay: Herbicidal activity, preemergence test; conditions: pre; sprayed onto soil, 800 g of active material per hectare; evaluated 3 weeks after treatment
Outline: as §1

Ipomoea hederacea [9] = assay: Herbicidal activity, preemergence test; conditions: pre; sprayed onto soil, 800 g of active material per hectare; evaluated 3 weeks after treatment
Outline: as §1

Lamium purpureum [10] = assay: Herbicidal activity, preemergence test; conditions: pre; sprayed onto soil, 800 g of active material per hectare; evaluated 3 weeks after treatment
Outline: as §1

Matricaria inodora [11] = assay: Herbicidal activity, preemergence test; conditions: pre; sprayed onto soil, 800 g of active material per hectare; evaluated 3 weeks after treatment
Outline: as §1

Setaria viridis [12] = assay: Herbicidal activity, preemergence test; conditions: pre; sprayed onto soil, 800 g of active material per hectare; evaluated 3 weeks after treatment
Outline: as §1

Hordeum vulgare [13] = assay: Herbicidal activity, preemergence test; conditions: pre; sprayed onto soil, 800 g of active material per hectare; evaluated 3 weeks after treatment
Outline: as §1

Galium aparine [14] = assay: Herbicidal activity, preemergence test; conditions: pre; sprayed onto soil, 800 g of active material per hectare; evaluated 3 weeks after treatment
Outline: as §1

Veronica persica [15] = assay: Herbicidal activity, preemergence test; conditions: pre; sprayed onto soil, 800 g of active material per hectare; evaluated 3 weeks after treatment
Outline: as §1

Helianthus annuus [16] = assay: Herbicidal activity, preemergence test; conditions: pre; sprayed onto soil, 800 g of active material per hectare; evaluated 3 weeks after treatment
Outline: as §1

Glycine max [17] = assay: Herbicidal activity, postemergence test; conditions: post; sprayed onto seedling plants, 800 g of active material per hectare; evaluated 2 weeks after treatment
Outline: (§2)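 First, test compound in acetone containing 0.4% Triton X-155 is diluted with water. Next, it is sprayed at 800 g/ha (900 L/ha) onto freshly seeded loam (pre) or onto seedlings (post). Finally, plants are scored 0-9 visually after 3 or 2 weeks, respectively.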

Viola arvensis [18] = assay: Herbicidal activity, postemergence test; conditions: post; sprayed onto seedling plants, 800 g of active material per hectare; evaluated 2 weeks after treatment
Outline: as §2

Gossypium hirsutum [19] = assay: Herbicidal activity, postemergence test; conditions: post; sprayed onto seedling plants, 800 g of active material per hectare; evaluated 2 weeks after treatment
Outline: as §2

Papaver rhoeas [20] = assay: Herbicidal activity, postemergence test; conditions: post; sprayed onto seedling plants, 800 g of active material per hectare; evaluated 2 weeks after treatment
Outline: as §2

Alopecurus myosuroides [21] = assay: Herbicidal activity, postemergence test; conditions: post; sprayed onto seedling plants, 800 g of active material per hectare; evaluated 2 weeks after treatment
Outline: as §2

Triticum aestivum [22] = assay: Herbicidal activity, postemergence test; conditions: post; sprayed onto seedling plants, 800 g of active material per hectare; evaluated 2 weeks after treatment
Outline: as §2

Abutilon theophrasti [23] = assay: Herbicidal activity, postemergence test; conditions: post; sprayed onto seedling plants, 800 g of active material per hectare; evaluated 2 weeks after treatment
Outline: as §2

Zea mays [24] = assay: Herbicidal activity, postemergence test; conditions: post; sprayed onto seedling plants, 800 g of active material per hectare; evaluated 2 weeks after treatment
Outline: as §2

Ipomoea hederacea [25] = assay: Herbicidal activity, postemergence test; conditions: post; sprayed onto seedling plants, 800 g of active material per hectare; evaluated 2 weeks after treatment
Outline: as §2

Lamium purpureum [26] = assay: Herbicidal activity, postemergence test; conditions: post; sprayed onto seedling plants, 800 g of active material per hectare; evaluated 2 weeks after treatment
Outline: as §2

Matricaria inodora [27] = assay: Herbicidal activity, postemergence test; conditions: post; sprayed onto seedling plants, 800 g of active material per hectare; evaluated 2 weeks after treatment
Outline: as §2

Setaria viridis [28] = assay: Herbicidal activity, postemergence test; conditions: post; sprayed onto seedling plants, 800 g of active material per hectare; evaluated 2 weeks after treatment
Outline: as §2

Hordeum vulgare [29] = assay: Herbicidal activity, postemergence test; conditions: post; sprayed onto seedling plants, 800 g of active material per hectare; evaluated 2 weeks after treatment
Outline: as §2

Galium aparine [30] = assay: Herbicidal activity, postemergence test; conditions: post; sprayed onto seedling plants, 800 g of active material per hectare; evaluated 2 weeks after treatment
Outline: as §2

Veronica persica [31] = assay: Herbicidal activity, postemergence test; conditions: post; sprayed onto seedling plants, 800 g of active material per hectare; evaluated 2 weeks after treatment
Outline: as §2

Helianthus annuus [32] = assay: Herbicidal activity, postemergence test; conditions: post; sprayed onto seedling plants, 800 g of active material per hectare; evaluated 2 weeks after treatment
Outline: as §2

Chenopodium album [33] = assay: Herbicidal activity, preemergence test; conditions: pre; sprayed onto soil, 800 g of active material per hectare; evaluated 3 weeks after treatment
Outline: as §1

Stellaria media [34] = assay: Herbicidal activity, preemergence test; conditions: pre; sprayed onto soil, 800 g of active material per hectare; evaluated 3 weeks after treatment
Outline: as §1

Ambrosia artemisifolia [35] = assay: Herbicidal activity, preemergence test; conditions: pre; sprayed onto soil, 800 g of active material per hectare; evaluated 3 weeks after treatment
Outline: as §1

Amaranthus retroflexus [36] = assay: Herbicidal activity, preemergence test; conditions: pre; sprayed onto soil, 800 g of active material per hectare; evaluated 3 weeks after treatment
Outline: as §1

Chenopodium album [37] = assay: Herbicidal activity, postemergence test; conditions: post; sprayed onto seedling plants, 800 g of active material per hectare; evaluated 2 weeks after treatment
Outline: as §2

Stellaria media [38] = assay: Herbicidal activity, postemergence test; conditions: post; sprayed onto seedling plants, 800 g of active material per hectare; evaluated 2 weeks after treatment
Outline: as §2

Ambrosia artemisifolia [39] = assay: Herbicidal activity, postemergence test; conditions: post; sprayed onto seedling plants, 800 g of active material per hectare; evaluated 2 weeks after treatment
Outline: as §2

Amaranthus retroflexus [40] = assay: Herbicidal activity, postemergence test; conditions: post; sprayed onto seedling plants, 800 g of active material per hectare; evaluated 2 weeks after treatment
Outline: as §2

Row | Structure (SMILES) | GLXMA control rating (0-9) (Glycine max [1]) | GOSHI control rating (0-9) (Gossypium hirsutum [3]) | PAPRH control rating (0-9) (Papaver rhoeas [4]) | ALOMY control rating (0-9) (Alopecurus myosuroides [5]) | TRZAW control rating (0-9) (Triticum aestivum [6]) | ABUTH control rating (0-9) (Abutilon theophrasti [7]) | ZEAMX control rating (0-9) (Zea mays [8]) | IPOHE control rating (0-9) (Ipomoea hederacea [9]) | LAMPU control rating (0-9) (Lamium purpureum [10]) | MATIN control rating (0-9) (Matricaria inodora [11]) | SETVI control rating (0-9) (Setaria viridis [12]) | HORVW control rating (0-9) (Hordeum vulgare [13]) | GALAP control rating (0-9) (Galium aparine [14]) | VERPE control rating (0-9) (Veronica persica [15]) | GLXMA control rating (0-9) (Glycine max [17]) | GOSHI control rating (0-9) (Gossypium hirsutum [19]) | PAPRH control rating (0-9) (Papaver rhoeas [20]) | ALOMY control rating (0-9) (Alopecurus myosuroides [21]) | TRZAW control rating (0-9) (Triticum aestivum [22]) | ABUTH control rating (0-9) (Abutilon theophrasti [23]) | also measured
1 | C[C@H](NC(=O)c1nnc(N(C)C)o1)c1ccccc1 [Example 6] | 0 (no effect) | 0 (no effect) | 0 (no effect) | 0 (no effect) | 0 (no effect) | 0 (no effect) | 0 (no effect) | 0 (no effect) | 0 (no effect) | 0 (no effect) | 0 (no effect) | 0 (no effect) | 0 (no effect) | 0 (no effect) | 0 (no effect) | 2 (slight effect) | 0 (no effect) | 2 (slight effect) | 1 (trace effect) | 2 (slight effect) | VIOAR control rating (0-9) (Viola arvensis [2]): 2 (slight effect); HELAN control rating (0-9) (Helianthus annuus [16]): 0 (no effect); VIOAR control rating (0-9) (Viola arvensis [18]): 0 (no effect); ZEAMX control rating (0-9) (Zea mays [24]): 0 (no effect); IPOHE control rating (0-9) (Ipomoea hederacea [25]): 2 (slight effect); LAMPU control rating (0-9) (Lamium purpureum [26]): 1 (trace effect); MATIN control rating (0-9) (Matricaria inodora [27]): 0 (no effect); SETVI control rating (0-9) (Setaria viridis [28]): 0 (no effect); HORVW control rating (0-9) (Hordeum vulgare [29]): 2 (slight effect); GALAP control rating (0-9) (Galium aparine [30]): 2 (slight effect); VERPE control rating (0-9) (Veronica persica [31]): 0 (no effect); HELAN control rating (0-9) (Helianthus annuus [32]): 2 (slight effect)
2 | C[C@H](NC(=O)c1nnc(-c2ccc(C(C)(C)C)cc2)o1)c1ccccc1 [Example 16] | 0 (no effect) | 0 (no effect) | 9 (complete kill) | 0 (no effect) | 0 (no effect) | 1 (trace effect) | 0 (no effect) | 1 (trace effect) | 8 (approaching complete kill) | 9 (complete kill) | 8 (approaching complete kill) | 0 (no effect) | 0 (no effect) | 9 (complete kill) | 4 (injury) | 9 (complete kill) | 7 (good herbicidal effect) | 3 (moderate effect) | 2 (slight effect) | 8 (approaching complete kill) | CHEAL control rating (0-9) (Chenopodium album [33]): 7 (good herbicidal effect); STEME control rating (0-9) (Stellaria media [34]): 6 (herbicidal effect); AMBEL control rating (0-9) (Ambrosia artemisifolia [35]): 3 (moderate effect); AMARE control rating (0-9) (Amaranthus retroflexus [36]): 9 (complete kill); CHEAL control rating (0-9) (Chenopodium album [37]): 7 (good herbicidal effect); ZEAMX control rating (0-9) (Zea mays [24]): 3 (moderate effect); IPOHE control rating (0-9) (Ipomoea hederacea [25]): 8 (approaching complete kill); STEME control rating (0-9) (Stellaria media [38]): 9 (complete kill); LAMPU control rating (0-9) (Lamium purpureum [26]): 9 (complete kill); MATIN control rating (0-9) (Matricaria inodora [27]): 9 (complete kill); SETVI control rating (0-9) (Setaria viridis [28]): 9 (complete kill); AMBEL control rating (0-9) (Ambrosia artemisifolia [39]): 8 (approaching complete kill); HORVW control rating (0-9) (Hordeum vulgare [29]): 4 (injury); AMARE control rating (0-9) (Amaranthus retroflexus [40]): 9 (complete kill); GALAP control rating (0-9) (Galium aparine [30]): 7 (good herbicidal effect); VERPE control rating (0-9) (Veronica persica [31]): 9 (complete kill)
3 | COc1ccc(-c2nnc(C(=O)N[C@@H](C)c3ccccc3)o2)cc1 [Example 19] | 0 (no effect) | 0 (no effect) | 9 (complete kill) | 0 (no effect) | 0 (no effect) | 1 (trace effect) | 0 (no effect) | 0 (no effect) | 8 (approaching complete kill) | 7 (good herbicidal effect) | 7 (good herbicidal effect) | 0 (no effect) | 0 (no effect) | 9 (complete kill) | 4 (injury) | 9 (complete kill) | 7 (good herbicidal effect) | 3 (moderate effect) | 2 (slight effect) | 9 (complete kill) | CHEAL control rating (0-9) (Chenopodium album [33]): 9 (complete kill); STEME control rating (0-9) (Stellaria media [34]): 6 (herbicidal effect); AMBEL control rating (0-9) (Ambrosia artemisifolia [35]): 0 (no effect); AMARE control rating (0-9) (Amaranthus retroflexus [36]): 9 (complete kill); CHEAL control rating (0-9) (Chenopodium album [37]): 8 (approaching complete kill); ZEAMX control rating (0-9) (Zea mays [24]): 3 (moderate effect); IPOHE control rating (0-9) (Ipomoea hederacea [25]): 6 (herbicidal effect); STEME control rating (0-9) (Stellaria media [38]): 8 (approaching complete kill); LAMPU control rating (0-9) (Lamium purpureum [26]): 8 (approaching complete kill); MATIN control rating (0-9) (Matricaria inodora [27]): 6 (herbicidal effect); SETVI control rating (0-9) (Setaria viridis [28]): 9 (complete kill); AMBEL control rating (0-9) (Ambrosia artemisifolia [39]): 7 (good herbicidal effect); HORVW control rating (0-9) (Hordeum vulgare [29]): 3 (moderate effect); AMARE control rating (0-9) (Amaranthus retroflexus [40]): 8 (approaching complete kill); GALAP control rating (0-9) (Galium aparine [30]): 5 (definite injury); VERPE control rating (0-9) (Veronica persica [31]): 9 (complete kill)
